Test results published in patent US9546164B2 (GENENTECH, INC., priority 2013, dated 2017).
Where a name gives a salt, the structure may show the parent alone.

target: hNav1.7 (Homo sapiens (Human), UniProt Q15858); assay: Tritiated sulfonamide competitive binding to membranes from cells expressing hNav1.7 and the β1 subunit; conditions: not given;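 note: Filter-bound radioactivity counted by liquid scintillation, nonspecific binding defined with excess unlabelled ligand, IC50 fitted to percent inhibition of specific binding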
Sequence (Q15858 other isoform, or with tags, fused parts or gaps): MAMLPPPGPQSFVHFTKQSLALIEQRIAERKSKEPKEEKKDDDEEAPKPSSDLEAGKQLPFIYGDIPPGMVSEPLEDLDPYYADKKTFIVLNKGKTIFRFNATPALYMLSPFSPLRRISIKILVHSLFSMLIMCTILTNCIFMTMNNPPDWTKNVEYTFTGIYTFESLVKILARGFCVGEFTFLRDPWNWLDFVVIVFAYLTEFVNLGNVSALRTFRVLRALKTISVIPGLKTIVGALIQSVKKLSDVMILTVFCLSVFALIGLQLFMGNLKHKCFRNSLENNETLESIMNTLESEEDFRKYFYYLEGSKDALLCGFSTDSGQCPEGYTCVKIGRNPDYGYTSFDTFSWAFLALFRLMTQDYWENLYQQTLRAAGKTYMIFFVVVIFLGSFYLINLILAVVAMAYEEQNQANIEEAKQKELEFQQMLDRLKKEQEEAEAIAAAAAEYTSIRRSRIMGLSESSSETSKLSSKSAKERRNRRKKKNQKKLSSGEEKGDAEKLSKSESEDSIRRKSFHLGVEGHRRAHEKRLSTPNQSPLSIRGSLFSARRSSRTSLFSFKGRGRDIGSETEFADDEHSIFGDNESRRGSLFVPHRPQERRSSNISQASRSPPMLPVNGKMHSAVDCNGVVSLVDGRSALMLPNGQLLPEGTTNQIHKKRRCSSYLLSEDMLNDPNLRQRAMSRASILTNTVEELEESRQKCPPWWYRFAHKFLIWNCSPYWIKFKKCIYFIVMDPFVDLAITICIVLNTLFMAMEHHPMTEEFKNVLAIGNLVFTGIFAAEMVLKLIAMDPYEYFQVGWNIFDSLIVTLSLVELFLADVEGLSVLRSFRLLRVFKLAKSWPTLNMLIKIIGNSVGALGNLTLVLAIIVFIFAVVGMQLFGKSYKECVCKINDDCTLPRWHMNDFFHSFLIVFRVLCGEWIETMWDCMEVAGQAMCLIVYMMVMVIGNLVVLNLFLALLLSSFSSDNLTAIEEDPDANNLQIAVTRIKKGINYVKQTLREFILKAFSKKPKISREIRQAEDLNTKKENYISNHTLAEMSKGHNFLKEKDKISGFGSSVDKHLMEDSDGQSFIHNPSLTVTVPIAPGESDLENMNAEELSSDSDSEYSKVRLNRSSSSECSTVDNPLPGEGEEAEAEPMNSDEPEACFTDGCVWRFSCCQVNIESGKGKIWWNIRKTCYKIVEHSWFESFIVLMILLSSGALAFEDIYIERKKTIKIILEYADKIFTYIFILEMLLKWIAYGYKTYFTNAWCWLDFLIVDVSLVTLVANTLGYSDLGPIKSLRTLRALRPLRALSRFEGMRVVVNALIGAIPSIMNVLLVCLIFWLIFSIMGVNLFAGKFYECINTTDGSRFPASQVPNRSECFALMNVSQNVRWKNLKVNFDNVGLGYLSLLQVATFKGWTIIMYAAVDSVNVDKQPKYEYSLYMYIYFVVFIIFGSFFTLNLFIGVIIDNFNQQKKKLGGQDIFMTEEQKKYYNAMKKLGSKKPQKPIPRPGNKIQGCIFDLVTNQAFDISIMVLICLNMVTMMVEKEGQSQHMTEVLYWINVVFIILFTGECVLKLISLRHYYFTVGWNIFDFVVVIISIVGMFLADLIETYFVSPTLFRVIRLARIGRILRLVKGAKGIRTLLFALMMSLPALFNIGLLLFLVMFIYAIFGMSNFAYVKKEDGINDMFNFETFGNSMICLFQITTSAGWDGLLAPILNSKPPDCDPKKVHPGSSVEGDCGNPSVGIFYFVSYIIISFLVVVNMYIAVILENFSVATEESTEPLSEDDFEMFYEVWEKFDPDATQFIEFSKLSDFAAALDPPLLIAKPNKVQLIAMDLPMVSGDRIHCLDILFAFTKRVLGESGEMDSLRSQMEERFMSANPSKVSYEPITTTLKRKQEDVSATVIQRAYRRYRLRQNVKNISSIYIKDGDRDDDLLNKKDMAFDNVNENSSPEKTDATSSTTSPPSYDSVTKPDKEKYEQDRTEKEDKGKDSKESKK
Sequence (Q07699 19-218 partner): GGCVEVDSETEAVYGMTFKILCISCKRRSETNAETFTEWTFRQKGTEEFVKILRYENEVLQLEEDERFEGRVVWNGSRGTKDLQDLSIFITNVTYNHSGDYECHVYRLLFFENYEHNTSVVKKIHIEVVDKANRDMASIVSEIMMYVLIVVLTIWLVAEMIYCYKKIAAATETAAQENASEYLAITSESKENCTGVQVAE

SMILES | IC50 [nM]
O=C(NS(=O)(=O)C1CC1)c1cc(C2CC2)c(CN2CCC(Oc3ccc(Cl)c(C(F)(F)F)c3)CC2)cc1F [Example 520, 4-((4-(4-chloro-3-(trifluoromethyl)phenoxy)piperidin-1-yl)methyl)-5-cyclopropyl-N-(cyclopropylsulfonyl)-2-fluorobenzamide, trifluoroacetic acid salt] | 7.3
CS(=O)(=O)NC(=O)c1cc(C2CC2)c(OCC2CCN(Cc3cc(Cl)cc(C#N)c3)CC2)cc1F [Example 590, 4-((1-(3-chloro-5-cyanobenzyl)piperidin-4-yl)methoxy)-5-cyclopropyl-2-fluoro-N-(methylsulfonyl)benzamide] | 26
CS(=O)(=O)NC(=O)c1cc(C2CC2)c(CN2CCC(CF)(c3ccc(F)cc3)CC2)cc1F [Example 513, 5-cyclopropyl-2-fluoro-4-((4-(fluoromethyl)-4-(4-fluorophenyl)piperidin-1-yl)methyl)-N-(methylsulfonyl)benzamide, trifluoroacetic acid salt] | 69.8
O=C(NS(=O)(=O)N1CCC1)c1cc(C2CC2)c(O[C@@H]2CCCN(Cc3ccc(Cl)cc3Cl)C2)cc1F [Example 30, (R)—N-(azetidin-1-ylsulfonyl)-5-cyclopropyl-4-((1-(2,4-dichlorobenzyl)piperidin-3-yl)oxy)-2-fluorobenzamide] | 2.7
O=C(NS(=O)(=O)C1CC1)c1cc(C2CC2)c(CN2CCC(Oc3cc(C(F)(F)F)c(Cl)cn3)CC2)cc1F [Example 522, 4-((4-((5-chloro-4-(trifluoromethyl)pyridin-2-yl)oxy)piperidin-1-yl)methyl)-5-cyclopropyl-N-(cyclopropylsulfonyl)-2-fluorobenzamide, trifluoroacetic acid salt] | 5.2

same assay, conditions: read-out: Ligand Binding Assay; 100 pM [3H]compound, membranes with hNav1.7 and β1 subunit, 18 h, room temperature

SMILES | IC50 [nM]
COc1ccc(CN2CCC(COc3cc(F)c(C(=O)NS(C)(=O)=O)cc3C3CC3)CC2)cc1F [Example 94, 5-Cyclopropyl-2-fluoro-4-((1-(3-fluoro-4-methoxybenzyl)piperidin-4-yl)methoxy)-N-(methylsulfonyl)benzamide] | 150
C[C@@H](c1ccc(F)cc1Cl)N1C[C@H]2C[C@@H]1[C@H](Oc1cc(F)c(C(=O)NS(C)(=O)=O)cc1C1CC1)C2 [Example 450, 4-(((1R,4S,6R)-2-((S)-1-(2-chloro-4-fluorophenyl)ethyl)-2-azabicyclo[2.2.1]heptan-6-yl)oxy)-5-cyclopropyl-2-fluoro-N-(methylsulfonyl)benzamide, trifluoroacetic acid salt] | 9.9
CS(=O)(=O)NC(=O)c1cc(C2CC2)c(OCC2CN([C@@H](c3ccccc3)c3cc(Cl)cc(Cl)c3)C2)cc1F [Example 142, (S)-5-Cyclopropyl-4-((1-((3,5-dichlorophenyl)(phenyl)methyl)azetidin-3-yl)methoxy)-2-fluoro-N-(methylsulfonyl)benzamide] | 6.57
O=C(NS(=O)(=O)N1CCC1)c1cc(C2CC2)c(OCC2CCN(C3(c4cc(Cl)cc(Cl)c4)COC3)CC2)cc1F [Example 176] | 9.1
CS(=O)(=O)NC(=O)c1cc(C2CC2)c(OCC2CCN(Cc3ccc(Cl)cc3C(F)(F)F)CC2)cc1F [Example 579, 4-((1-(4-chloro-2-(trifluoromethyl)benzyl)piperidin-4-yl)methoxy)-5-cyclopropyl-2-fluoro-N-(methylsulfonyl)benzamide] | 2.9
CS(=O)(=O)NC(=O)c1cc(C2CC2)c(OCC2CCN(S(=O)(=O)c3ccc(C(F)(F)F)cc3)CC2)cc1F [Example 372, 5-cyclopropyl-2-fluoro-N-(methylsulfonyl)-4-((1-((4-(trifluoromethyl)phenyl)sulfonyl)piperidin-4-yl)methoxy)benzamide] | 49.2
CS(=O)(=O)NC(=O)c1cc(C2CC2)c(OCC2CCN(CC3(C(F)(F)F)CC3)CC2)cc1F [Example 252, 5-cyclopropyl-2-fluoro-N-(methylsulfonyl)-4-((1-((1-(trifluoromethyl)cyclopropyl)methyl)piperidin-4-yl)methoxy)benzamide] | 50
CCC(c1cc(Cl)cc(Cl)c1)N1CC(COc2cc(F)c(C(=O)NS(C)(=O)=O)cc2C2CC2)C1 (stereo not shown) [Example 158, 5-Cyclopropyl-4-((1-(1-(3,5-dichlorophenyl)propyl)azetidin-3-yl)methoxy)-2-fluoro-N-(methylsulfonyl)benzamide] | 12.3
O=C(NS(=O)(=O)C1CC1)c1cc(C2CC2)c(OCC2CCN(S(=O)(=O)c3ccc(C(F)(F)F)cc3Cl)CC2)cc1F [Example 385, 4-((1-((2-chloro-4-(trifluoromethyl)phenyl)sulfonyl)piperidin-4-yl)methoxy)-5-cyclopropyl-N-(cyclopropylsulfonyl)-2-fluorobenzamide] | 10
CC1(COc2cc(F)c(C(=O)NS(C)(=O)=O)cc2C2CC2)CCN(Cc2cc(Cl)ccc2C(F)(F)F)CC1 [Example 122] | 2.4
CS(=O)(=O)NC(=O)c1cc(C2CC2)c(OCC2CN([C@H](c3ccccc3)c3ccc(OC(F)(F)F)cc3)C2)cc1F [Example 113, (R)-5-Cyclopropyl-2-fluoro-N-(methylsulfonyl)-4-((1-(phenyl(4-(trifluoromethoxy)phenyl)methyl)azetidin-3-yl)methoxy)benzamide] | 11.1
CS(=O)(=O)NC(=O)c1cc(C2CC2)c(OCC2(C#N)CCN(Cc3cc(C(F)(F)F)cc(Cl)c3F)CC2)cc1F [Example 595, 4-((1-(3-chloro-2-fluoro-5-(trifluoromethyl)benzyl)-4-cyanopiperidin-4-yl)methoxy)-5-cyclopropyl-2-fluoro-N-(methylsulfonyl)benzamide] | 34.3
C[C@@H]1CC[C@@H](Oc2cc(F)c(C(=O)NS(=O)(=O)N3CCC3)cc2C2CC2)CN1Cc1ccc(F)cc1Cl [Example 322, N-(azetidin-1-ylsulfonyl)-4-(((3R,6R)-1-(2-chloro-4-fluorobenzyl)-6-methylpiperidin-3-yl)oxy)-5-cyclopropyl-2-fluorobenzamide] | 1.9
CS(=O)(=O)NC(=O)c1cc(C2CC2)c(OCC2CCN(S(C)(=O)=O)CC2)cc1F [Example 395, 5-cyclopropyl-2-fluoro-N-(methylsulfonyl)-4-((1-(methylsulfonyl)piperidin-4-yl)methoxy)benzamide] | > 10000
COc1ccc(CN2CCC(COc3cc(F)c(C(=O)NS(C)(=O)=O)cc3C3CC3)CC2)cc1Cl [Example 183, 4-((1-(3-Chloro-4-methoxybenzyl)piperidin-4-yl)methyoxy)-5-cyclopropyl-2-fluoro-N-(methylsulfonyl)benzamide] | 47
O=C(NS(=O)(=O)C1CC1)c1cc(C2CC2)c(OCC2CCN(C(=O)c3cccc(Cl)c3)CC2)cc1F [Example 196, 4-((1-(3-Chlorobenzoyl)piperidin-4-yl)methoxy)-5-cyclopropyl-N-(cyclopropylsulfonyl)-2-fluorobenzamide] | 43
Cc1nc(CN2CCC(COc3cc(F)c(C(=O)NS(=O)(=O)C4CC4)cc3C3CC3)CC2)cs1 [Example 354, 5-cyclopropyl-N-(cyclopropylsulfonyl)-2-fluoro-4-((1-((2-methylthiazol-4-yl)methyl)piperidin-4-yl)methoxy)benzamide, trifluoroacetic acid salt] | 2670
C[C@@H](c1cccc(F)c1)N1CCC(C)(COc2cc(F)c(C(=O)NS(C)(=O)=O)cc2C2CC2)CC1 (single isomer, unassigned) [Example 251] | 49
CS(=O)(=O)NC(=O)c1cc(C2CC2)c(OCC2CN(S(=O)(=O)c3cc(Cl)cc(Cl)c3)C2)cc1F [Example 274, 5-Cyclopropyl-4-((1-((3,5-dichlorophenyl)sulfonyl)azetidin-3-yl)methoxy)-2-fluoro-N-(methylsulfonyl)benzamide] | 68
C[C@H](c1ccc(F)cc1Cl)N1CCC[C@@H](Oc2cc(F)c(C(=O)NS(C)(=O)=O)cc2C2CC2)C1 [Example 296, 4-(((R)-1-((R)-1-(2-chloro-4-fluorophenyl)ethyl)piperidin-3-yl)oxy)-5-cyclopropyl-2-fluoro-N-(methylsulfonyl)benzamide] | 8.1
CS(=O)(=O)NC(=O)c1cc(C2CC2)c(OCC2CN([C@@H](c3ccccc3)c3ccncc3)C2)cc1F [Example 152, (S)-5-Cyclopropyl-2-fluoro-N-(methylsulfonyl)-4-((1-(phenyl(pyridin-4-yl)methyl)azetidin-3-yl)methoxy)benzamide] | 443
O=C(NS(=O)(=O)C1CC1)c1cc(C2CC2)c(OCC2CCN(S(=O)(=O)c3ccc(F)c(Cl)c3)CC2)cc1F [Example 383, 4-((1-((3-chloro-4-fluorophenyl)sulfonyl)piperidin-4-yl)methoxy)-5-cyclopropyl-N-(cyclopropylsulfonyl)-2-fluorobenzamide] | 14.8
C[C@H](c1cc(Cl)cc(Cl)c1)N1CCC(COc2cc(F)c(C(=O)NS(C)(=O)=O)cc2Cl)CC1 [Example 404, (R)-5-chloro-4-((1-(1-(3,5-dichlorophenyl)ethyl)piperidin-4-yl)methoxy)-2-fluoro-N-(methylsulfonyl)benzamide, trifluoroacetic acid] | 20.1
CS(=O)(=O)NC(=O)c1cc(C2CC2)c(OCC2CCN(Cc3cc(F)c(F)c(Cl)c3)CC2)cc1F [Example 456, 4-((1-(3-chloro-4,5-difluorobenzyl)piperidin-4-yl)methoxy)-5-cyclopropyl-2-fluoro-N-(methylsulfonyl)benzamide, trifluoroacetic acid salt] | 9.3
CS(=O)(=O)NC(=O)c1cc(C2CC2)c(OCC2CCN(Cc3nc(-c4ccccc4Cl)no3)CC2)cc1F [Example 410, 4-((1-((3-(2-chlorophenyl)-1,2,4-oxadiazol-5-yl)methyl)piperidin-4-yl)methoxy)-5-cyclopropyl-2-fluoro-N-(methylsulfonyl)benzamide, trifluoroacetic acid salt] | 10.9
CCS(=O)(=O)NC(=O)c1cc(C2CC2)c(OCC2(C)CN(c3ncc(C(F)(F)F)cc3Cl)C2)cc1F [Example 482, 4-((1-(3-chloro-5-(trifluoromethyl)pyridin-2-yl)-3-methylazetidin-3-yl)methoxy)-5-cyclopropyl-N-(ethylsulfonyl)-2-fluorobenzamide] | 3.3
